Data: the supplement of paper PMC13380429

How the values were obtained:
Settings in all cases: 72 h
Vero E6 [1] = assay: relative viability EC50 (midpoint between 100% and the lowest measured viability); higher = less toxic
U2OS [2] = assay: as above
Caco-2 [3] = assay: as above
HepG2 [4] = assay: as above
Vero E6 [5] = assay: cell viability relative to DMSO; higher = less toxic
U2OS [6] = assay: as above
Caco-2 [7] = assay: as above
HepG2 [8] = assay: as above
Vero E6 [9] = assay: drug sensitivity score (DSS) for viability; higher = more toxic; extreme values may be limits of the assay
U2OS [10] = assay: as above
Caco-2 [11] = assay: as above
HepG2 [12] = assay: as above
Calu-3 [13] = assay: as above
Calu-3 [14] = assay: cell viability relative to DMSO; higher = less toxic

| Structure (SMILES) | relative viability EC50 (Vero E6 [1]) [µM] | relative viability EC50 (U2OS [2]) [µM] | relative viability EC50 (Caco-2 [3]) [µM] | relative viability EC50 (HepG2 [4]) [µM] | cell viability (Vero E6 [5]; 1 nM) [%] | cell viability (Vero E6 [5]; 10 nM) [%] | cell viability (Vero E6 [5]; 100 nM) [%] | cell viability (Vero E6 [5]; 1000 nM) [%] | cell viability (Vero E6 [5]; 10000 nM) [%] | cell viability (U2OS [6]; 1 nM) [%] | cell viability (U2OS [6]; 10 nM) [%] | cell viability (U2OS [6]; 100 nM) [%] | cell viability (U2OS [6]; 1000 nM) [%] | cell viability (U2OS [6]; 10000 nM) [%] | cell viability (Caco-2 [7]; 1 nM) [%] | cell viability (Caco-2 [7]; 10 nM) [%] | cell viability (Caco-2 [7]; 100 nM) [%] | cell viability (Caco-2 [7]; 1000 nM) [%] | cell viability (Caco-2 [7]; 10000 nM) [%] | cell viability (HepG2 [8]; 1 nM) [%] | cell viability (HepG2 [8]; 10 nM) [%] | cell viability (HepG2 [8]; 100 nM) [%] | cell viability (HepG2 [8]; 1000 nM) [%] | cell viability (HepG2 [8]; 10000 nM) [%] | drug sensitivity score (Vero E6 [9]) | drug sensitivity score (U2OS [10]) | drug sensitivity score (Caco-2 [11]) | drug sensitivity score (HepG2 [12]) | drug sensitivity score (Calu-3 [13]) | cell viability (Calu-3 [14]; 1 nM) [%] | cell viability (Calu-3 [14]; 10 nM) [%] | cell viability (Calu-3 [14]; 100 nM) [%] | cell viability (Calu-3 [14]; 1000 nM) [%] | cell viability (Calu-3 [14]; 10000 nM) [%] |
| --- | --- | --- | --- | --- | --- | --- | --- | --- | --- | --- | --- | --- | --- | --- | --- | --- | --- | --- | --- | --- | --- | --- | --- | --- | --- | --- | --- | --- | --- | --- | --- | --- | --- | --- |
| CCn1c(O)nnc1-c1ccc(Cl)cc1 [5-(4chlorophenyl)-4-ethyl-2,4-dihydro-3H-1,2,4-triazol-3-one] | > 10 | > 10 | > 10 | > 10 | 97.9 | 102 | 102 | 106 | 79.6 | 100 | 103 | 99.8 | 98.1 | 78.6 | 116 | 112 | 112 | 91.6 | 79.1 | 112 | 111 | 102 | 98.3 | 94.7 | 0.4 | 1 | 1.6 | 0 | – | – | – | – | – | – |
| NCC(O)(CS(=O)(=O)O)c1ccc(Cl)cc1 (centres undefined) [2-hydroxysaclofen] | > 10 | > 10 | > 10 | > 10 | 100 | 98.1 | 102 | 97.2 | 97.5 | 104 | 94.8 | 94.9 | 103 | 97.4 | 98.4 | 96.2 | 91.4 | 98.6 | 96.3 | 101 | 98.5 | 89.4 | 90.3 | 98.8 | 0 | 0 | 0 | 0.3 | – | – | – | – | – | – |
| Nc1nc2c(ncn2COC(CO)CO)c(=O)[nH]1 [ganciclovir] | – | – | – | – | – | – | – | – | – | – | – | – | – | – | – | – | – | – | – | – | – | – | – | – | 0 | 0 | – | 0 | 0 | – | – | – | – | – |
| C[C@@H](N)c1ccc(C(=O)Nc2ccnc3[nH]ccc23)cc1 | > 10 | – | > 10 | – | 99.1 | 98.5 | 96.6 | 93 | 86.5 | 99.3 | 96.8 | 99 | 98.2 | 75 | 95.8 | 101 | 110 | 105 | 91.6 | 93.7 | 94.4 | 105 | 89.8 | 68.4 | 0.2 | 1.2 | 0 | 2.8 | – | – | – | – | – | – |
| NS(=O)(=O)OC[C@@H]1C[C@@H](n2ccc3c(N[C@H]4CCc5ccccc54)ncnc32)C[C@@H]1O [pevonedistat] | 3.45 | 1.3 | – | 0.401 | 96.9 | 107 | 103 | 104 | 24.3 | 98.6 | 98.6 | 101 | 71 | 14.9 | 95.3 | 106 | 87.7 | 92.4 | 60.1 | 96.3 | 111 | 77.6 | 58.2 | 32.7 | 3.9 | 8.8 | 3.1 | 10.3 | 1.6 | 94.9 | 97.2 | 104 | 97.4 | 71.8 |
| CC[C@H](C)[C@@H]([C@@H](CC(=O)N1CCC[C@H]1[C@H](OC)[C@@H](C)C(=O)N[C@@H](Cc1ccccc1)c1nccs1)OC)N(C)C(=O)[C@@H](NC(=O)[C@H](C(C)C)N(C)C)C(C)C [dolastatin-10] | < 0.001 | < 0.001 | < 0.001 | < 0.001 | 38.5 | 24.6 | 18.4 | 17.9 | 9.9 | 35.8 | 22.7 | 15.4 | 15.6 | 11.1 | 51.5 | 40.6 | 35 | 32.2 | 20.8 | 24.5 | 32.5 | 32.5 | 29.4 | 22.2 | 39 | 40 | 31.3 | 34 | – | – | – | – | – | – |
| CCC(=O)O[C@@H]1CC(=O)O[C@H](C)C/C=C/C=C/[C@H](O)[C@H](C)C[C@H](CC=O)[C@H](O[C@@H]2O[C@H](C)[C@@H](O[C@H]3C[C@@](C)(O)[C@@H](OC(=O)CC)[C@H](C)O3)[C@H](N(C)C)[C@H]2O)[C@H]1OC [midecamycin] | > 10 | > 10 | > 10 | – | 105 | 97.7 | 101 | 102 | 95.2 | 97.1 | 97 | 99.2 | 96.2 | 97.6 | 94.4 | 99.1 | 103 | 91.8 | 91.4 | 103 | 93.1 | 91.5 | 98 | 74 | 0 | 0 | 0 | 1.3 | – | – | – | – | – | – |
